Laboratory results from PMC6219668 (Oncotarget, 2018).

Assays:
REH = assay: cells; type: cell-based; conditions: Homo sapiens, ALL, dominant CDK6, read-out: IC50, mean ± SD
MOLM-13 = assay: cells; type: cell-based; conditions: Homo sapiens; MOLM-13, AML, dominant CDK6; read-out: IC50, mean ± SD
T47D = assay: cells; type: cell-based; conditions: Homo sapiens, ER+ BC, dominant CDK4, read-out: IC50, mean ± SD
A549 = assay: cells; type: cell-based; conditions: Homo sapiens, A549, 72 h
CHP-212 [1] = assay: cells; type: cell-based; conditions: Homo sapiens, CHP-212, 72 h
NCI-H2030 = assay: cells; type: cell-based; conditions: Homo sapiens, NCI-H2030, 72 h
CHP-212 [2] = assay: cells; type: cell-based; conditions: Homo sapiens, CHP-212, 72 h; remark: listed apart in the source
OE33 = assay: cells; type: cell-based; conditions: Homo sapiens, OE33, 72 h
KYSE450 = assay: cells; type: cell-based; conditions: Homo sapiens, KYSE-450; KYSE450, 72 h
HBCx-8 = type: in vivo; conditions: HBCx-8, Breast, TNBC, Rb present; 125 mg/kg bid × 21
HBCx-6 = type: in vivo; conditions: HBCx-6, Breast, TNBC, Rb present; 125 mg/kg bid × 21
WM-115 [3] = assay: cells; type: cell-based; conditions: Homo sapiens, WM-115, 72 h
SK-MEL-5 [4] = assay: cells; type: cell-based; conditions: Homo sapiens, SK-MEL-5, 72 h
CDK1/cyclin B = conditions: cited from earlier work
MDA-MB-415 = assay: cells; type: cell-based; conditions: Homo sapiens, MDA-MB-415, 72 h
HPAX0991 = type: in vivo; conditions: HPAX0991, Pancreatic, Rb present; 250 mg/kg qd
HBCx-1 = type: in vivo; conditions: HBCx-1, Breast, HER2High, Rb absent; 125 mg/kg bid × 21
LnCAP [5] = assay: cells; type: cell-based; conditions: Homo sapiens, 72 h
HBCx-11 = type: in vivo; conditions: HBCx-11, Breast, TNBC, Rb present; 125 mg/kg bid × 21
WM-115 [6] = assay: cells; type: cell-based; conditions: Homo sapiens, WM-115, 72 h; remark: listed apart in the source
NCI-H460 [7] = assay: cells; type: cell-based; conditions: Homo sapiens, NCI-H460, 72 h
WBCs and ANC = assay: Blood counts in JeKo-1 rat model; type: in vivo; conditions: all treatment groups compared with vehicle
Source text: To further characterize the pharmacokinetic/pharmacodynamic (PK/PD) relationship and simultaneously compare antitumor effects with white blood cell (WBC) counts in host animals, we used the JeKo-1 xenograft model in nude rats. […]. We observed dose-proportional increases in both drug exposure and target inhibition (Supplementary Table 5). […]. This dose-proportional target inhibition correlated with dose-dependent antitumor efficacy in the same JeKo-1 xenograft model.

PC-14 = assay: cells; type: cell-based; conditions: Homo sapiens, PC-14, 72 h
SK-MEL-28 = assay: cells; type: cell-based; conditions: Homo sapiens, SK-MEL-28, 72 h
HCC-4006 [8] = assay: cells; type: cell-based; conditions: Homo sapiens, HCC4006; HCC-4006, 72 h
HPAX1633 = type: in vivo; conditions: HPAX1633, Pancreatic, Rb present; 250 mg/kg qd
A2058 = assay: cells; type: cell-based; conditions: Homo sapiens, A2058, 72 h
SNU-761 = assay: cells; type: cell-based; conditions: SNU-761, 72 h
HCC-827 = assay: cells; type: cell-based; conditions: Homo sapiens, HCC827; HCC-827, 72 h
[9] = humans, 600 mg once daily; data not shown; cited from earlier work
MGH049 = assay: cells; type: cell-based; conditions: MGH049, 72 h
KELLY = assay: cells; type: cell-based; conditions: 72 h
TE-14 = assay: cells; type: cell-based; conditions: TE-14, 72 h
LnCAP [10] = assay: cells; type: cell-based; conditions: Homo sapiens, 72 h; remark: listed apart in the source
TE-5 = assay: cells; type: cell-based; conditions: Homo sapiens, TE-5, 72 h
SK-MEL-30 = assay: cells; type: cell-based; conditions: Homo sapiens, SK-MEL-30, 72 h
SK-MEL-5 [11] = assay: cells; type: cell-based; conditions: Homo sapiens, SK-MEL-5, 72 h; remark: listed apart in the source
NCI-H460 [12] = assay: cells; type: cell-based; conditions: Homo sapiens, NCI-H460, 72 h; remark: listed apart in the source
HCC-4006 [13] = assay: cells; type: cell-based; conditions: Homo sapiens, HCC4006; HCC-4006, 72 h; remark: listed apart in the source
TE-11 = assay: cells; type: cell-based; conditions: Homo sapiens, TE-11, 72 h
A-375 = assay: cells; type: cell-based; conditions: Homo sapiens, A-375, 72 h

CC(=O)c1c(C)c2cnc(Nc3ccc(N4CCNCC4)cn3)nc2n(C2CCCC2)c1=O [Palbociclib, reference compound]
IC50 (REH): 60 ± 17 µM
IC50 (MOLM-13): 47 ± 25 µM
IC50 (T47D): 66 ± 19 µM

CN(C)C(=O)c1cc2cnc(Nc3ccc(N4CCNCC4)cn3)nc2n1C1CCCC1 [Ribociclib, 7-cyclopentyl-2-(5-piperazin-1-yl-pyridin-2-ylamino)-7H-pyrrolo[2,3-d]pyrimidine-6-carboxylic acid dimethylamide]
IC50 (A549): > 10 µM
IC50 (CHP-212 [1]): 0.28 µM
IC50 (NCI-H2030): 8.33 µM
IC50 (CHP-212 [2]): 0.3 µM
IC50 (OE33): 0.63 µM
IC50 (KYSE450): > 10 µM
T/C (HBCx-8): 10
T/C (HBCx-6): 64
IC50 (WM-115 [3]): > 10 µM
IC50 (SK-MEL-5 [4]): > 10 µM
activity against CDK1/cyclin B (CDK1/cyclin B): far less active
IC50 (MDA-MB-415): > 10 µM
T/C (HPAX0991): 11
T/C (HBCx-1): 80
IC50 (LnCAP [5]): 1 µM
T/C (HBCx-11): 52
IC50 (WM-115 [6]): > 10 µM
IC50 (NCI-H460 [7]): > 10 µM
absolute neutrophil counts (WBCs and ANC): reduced
total WBC counts (WBCs and ANC): reduced
IC50 (PC-14): 6.98 µM
IC50 (SK-MEL-28): > 10 µM
IC50 (HCC-4006 [8]): 0.87 µM
T/C (HPAX1633): 30
IC50 (A2058): > 10 µM
IC50 (SNU-761): 0.67 µM
IC50 (HCC-827): > 10 µM
area under the concentration-time curve [9]: ~22,000 ng/mL × h
maximum serum concentration [9]: ~1700 ng/mL
IC50 (MGH049): 0.54 µM
IC50 (KELLY): 0.3 µM
IC50 (TE-14): > 10 µM
IC50 (LnCAP [10]): 0.18 µM
IC50 (TE-5): > 10 µM
IC50 (SK-MEL-30): 1 µM
IC50 (SK-MEL-5 [11]): 2.09 µM
IC50 (NCI-H460 [12]): 0.62 µM
IC50 (HCC-4006 [13]): > 10 µM
IC50 (TE-11): 4.41 µM
IC50 (A-375): > 10 µM
